Measured values taken from patent US9902761B2, “Polypeptides, nucleic acids and uses thereof” (AGENCY FOR SCIENCE, TECHNOLOGY AND RESEARCH, priority 2013, dated 2018).

Experiments:
hESCs [1] = experiment: uptake of FITC-labeled recombinant peptide by hESCs (immunofluorescence); format: cell-based, human
hECs = experiment: growth and survival effect of recombinant ELA on hECs; format: cell-based, human
Experimental: (§1) Primary human fibroblasts, SW1353 chondrosarcoma (ATCC) and NTERA2 hECs (a gift from Barbara Knowles and Davor Solter) were grown in Dulbecco's modified Eagle's medium (DMEM) with 10% FBS (Hyclone), 2 mM GlutaMAX™ (Invitrogen) and 1 mM sodium pyruvate. For xCELLigence real time growth assays, 4000 cells were plated per well of an E-plate (ACEA Biosciences) with media changes every 48 hours. […] Cell cycle studies were performed with Click-iT EDU staining kit (Invitrogen) and by performing a double thymidine block (2.5 mM thymidine; 16 hour block, 8 hour release, 16 hour block) followed by DAPI staining for DNA content at the indicated times following release.

[2] = tested on: primary human fibroblasts; experiment: growth and survival effect of recombinant ELA on primary fibroblasts; format: cell-based
Experimental: as §1

hESCs [3] = experiment: FACS of stem cell surface markers SSEA3 and TRA-1-60 in hESCs; format: cell-based, human
hESCs [4] = experiment: embryoid body differentiation of ELA-treated hESCs (qPCR); format: cell-based, human
Experimental: Embryoid body differentiation was performed by plating 1 million cells per well of an Aggrewell 400 plate in Aggrewell Medium (Stem Cell Technologies) followed by harvesting and replating into low-adhesion plates (Corning).
After the indicated time periods, embryoid bodies were harvested and RNA extracted using RNeasy kit ([…]). qPCR reactions were carried out using either Universal FastSlart SYBR Green Mastermix (Roche) or using the Universal Probe Library system (Roche) in tandem with Taqman Fast Mastermix (Invitrogen). Primer sequences can be found in Table E1.

CXCR4 [5] = biological target: T1, CXCR4 (Homo sapiens, UniProt P61073); experiment: PathHunter β-Arrestin CXCR4 assay, activation; format: cell-based; settings: β-Arrestin recruitment
Experimental: (§2) To detect activation of CXCR4 by ELA or SDF-1, recombinant ELA or SDF-1 were added in increasing concentrations for 90-180 minutes to cells stably expressing CXCR4 coupled to a downstream reporter. β-Arrestin recruitment was measured using the PathHunter® β-Arrestin CXCR4 assay (DiscoveRx). Interaction of CXCR4 with Arrestin was detected by Enzyme Fragment Complementation (EFC) between two complementary domains of β-galactosidase (β-Gal), one fused to CXCR4 and the other fused to β-Arrestin. β-Arrestin recruitment to CXCR4 results in complementation of the two domains to generate β-Gal activity. % Ac ? vity=100%×(mean RLU of test sample−mean RLU of vehicle control)/(mean MAX control ligand−mean RLU of vehicle control). To detect antagonism of SDF-1 by ELA, the assay was run in antagonist mode by measuring the EC50 of ELA in the presence of SDF-1 at EC80 concentration. To detect synergism between ELA and SDF-1, the assay was run in positive allosteric mode by measuring the EC50 of ELA in the presence of SDF-1 at EC20 concentration.

CXCR4 [6] = biological target: T1, CXCR4; experiment: PathHunter β-Arrestin CXCR4 assay, antagonist mode with SDF-1; format: cell-based; settings: SDF-1 at EC80 concentration
Experimental: as §2

HIV-1 NL43 = experiment: HIV inhibition assay in P4C5 HeLa cells (β-gal activity); format: cell-based; settings: CXCR4-tropic strain
PI3K/AKT pathway = experiment: signaling pathway assay in starved hESCs pulsed with peptide (SDS-PAGE, western); format: cell-based, human
Experimental: To assay the signaling pathway activated by ELA, hESCs were dissociated and plated in mTSER1 for 48 hours, followed by a 2-hour starvation in DMEM/F12. Synthetically produced ELA or ELA^RR>GG peptides, dialyzed against PBS to remove any residual synthesis buffers, were added at a final concentration of 5 uM (or as indicate(D) for the indicated period of time. Where applicable, PI3K inhibitors LY294002 (5 uM) and Wortmannin (1 uM) were added 30 minutes before pulsing with ELA peptides. Cells were lysed with PhosphoSafe™ (Millipore) for SDS-PAGE.

PRAS40 = experiment: SILAC-based phosphoproteomic analysis of hESCs pulsed for 10 minutes; format: cell-based, human; settings: 10 minute pulse, 5 uM
hESCs [7] = experiment: insulin replacement assay in hESCs; format: cell-based, human
Experimental: For insulin replacement assays, SHEF4 or HESC3 hESCs were cultured in TSER-E5 (Stem Cell Technologies) supplemented with TGF-β (5 ng/ml, R&D Systems) and bFGF (100 ng/ml, Invitrogen) with and without INSULIN (10 ug/ml, SIGMA).

hESCs [8] = experiment: stress-induced apoptosis of hESCs by ionizing radiation; format: cell-based, human
hESCs [9] = experiment: stress-induced apoptosis of hESCs by ActinomycinD; format: cell-based, human
Experimental: To induce apoptosis, hESCs were treated with the indicated doses of ActinomycinD (Sigma) or ionizing radiation followed by Aqueous One Cell Titer (Promega) or CASPASE GLO3/7 (Promega) assays 12 hours post-treatment.

hESCs [10] = experiment: survival of hESCs after single-cell dissociation (anoikis); format: cell-based, human; settings: with or without Y-27632
Experimental: hESCs were dissociated into single cells using Accutase (Stem Cell Technologies) and plated in the presence of 10 μM Y-27632 (ROCK inhibitor) for 12 hours (Watanabe et al., 2007).

[11] = myocardial ischaemia-reperfusion injury, APELIN experiments repeated with ELABELA; format: in vivo; settings: administered during reperfusion
Text: Peptides 2009; 30:1144-52. • Simpkin J C, Yellon D M, Davidson S M, Lim S Y, Wynne A M, Smith C C. […] Basic Res Cardiol 2007; 102:518-28.

[12] = heart failure, APELIN experiments repeated with ELABELA; settings: in vivo
Text: Nature 2012 Aug. […] J Clin Invest. 2013 Nov. 1.

[13] = pulmonary arterial hypertension, APELIN experiments repeated with ELABELA; settings: in vivo
Text: Am J Physiol Heart Circ Physiol 2009; 296:H2007-14.

[14] = erectile dysfunction, APELIN experiments repeated with ELABELA; settings: in vivo
Text: J Sex Med. 2013 Apr. 11. doi: 10.11 l/jsm.12158.

hESCs [15] = experiment: stress-induced apoptosis of hESCs by ActinomycinD; format: cell-based, human; remark: listed apart in the source
[16] = 3 hours after 1 Gray of γ irradiation

T1 sequence (P61073 whole entry, the tested form may be a part): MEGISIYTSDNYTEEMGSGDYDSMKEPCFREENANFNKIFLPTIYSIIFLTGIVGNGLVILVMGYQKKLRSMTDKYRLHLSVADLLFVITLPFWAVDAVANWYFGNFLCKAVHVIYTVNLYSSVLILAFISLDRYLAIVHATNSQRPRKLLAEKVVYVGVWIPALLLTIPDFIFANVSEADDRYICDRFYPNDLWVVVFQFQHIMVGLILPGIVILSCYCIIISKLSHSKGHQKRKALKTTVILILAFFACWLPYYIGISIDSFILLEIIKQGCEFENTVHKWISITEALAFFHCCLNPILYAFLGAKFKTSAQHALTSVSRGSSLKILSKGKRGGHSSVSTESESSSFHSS

QRPVNLTMRRKLRKHNCLQRRCMPLHSRVPFP [ELA]
uptake by hESCs (hESCs [1]): rapidly up-taken by hESCs | activity of recombinant ELA on hECs (hECs): exerted activity only on hESCs cultures and no other differentiated cell types | activity of recombinant ELA on primary human fibroblasts [2]: exerted activity only on hESCs cultures and no other differentiated cell types | levels of cell surface markers SSEA3 and TRA-1-60 (hESCs [3]): unchanged levels | lineage bias during embryoid body differentiation (hESCs [4]): not biased towards mesoderm or endoderm lineages | activation of CXCR4 (CXCR4 [5]): cannot activate CXCR4 | antagonism of SDF1-mediated CXCR4 activation (CXCR4 [6]): preventing SDF1-mediated CXCR4 activation | inhibition of infection with HIV-1 NL43 (HIV-1 NL43): inhibits infection | concentration at which ELA inhibits HIV (HIV-1 NL43; HeLa cells, B-Gal activity after 36-48 hrs of infection): 10 to 40 µM | activation of ERK and SMAD2 (PI3K/AKT pathway): little to no activation of ERK and SMAD2 | activation of PI3K/AKT and mTORC1 pathway (p70S6K phosphorylation) (PI3K/AKT pathway): activates the PI3K/AKT pathway and subsequently the mTORC1 pathway | phosphorylation of AKT at serine 473 and PRAS40 at threonine 246 (PI3K/AKT pathway; 5 uM peptide after 2-hour starvation): sufficient to trigger the immediated phosphorylation of AKT at serine 473 | phosphopeptide LNpTSDFQK derived from PRAS40 (PRAS40): Among the top phosphopeptides activated by ELA | growth rescue of shELA hESCs under INSULIN deprivation (hESCs [7]): intermediate growth rescue | rescue of the irradiation sensitivity of shELA hESCs (hESCs [8]): rescued this phenotype | activated CASPASE 3 after irradiation (hESCs [8]; [16]): almost undetectable | γH2AX foci after irradiation (hESCs [8]; [16]): comparable numbers of γH2AX foci | activated CASPASE3/7 and CASPASE 9 after ActinomycinD (hESCs [9]): entirely suppressed | resistance or sensitivity to ActinomycinD (hESCs [9]; nanomolar concentrations of ActinomycinD): conferred significant resistance to control hESCs and completely rescued shELA hESCs | survival following dissociation (anoikis) (hESCs [10]): able to increase survival following dissociation | infarct size [11]: significantly decrease infarct size | protection against heart failure [12]: able to provide protection against heart failure | symptoms of pulmonary arterial hypertension [13]: alleviates symptoms of pulmonary arterial hypertension | erectile function [14]: significant restoration of erectile function | levels of MCL-1 (hESCs [15]): rescued with exogenous ELA | levels of P53 protein following exposure to stress (hESCs [15]): no apparent effect | BAX localisation (hESCs [15]; mitochondria versus cytoplasm): remained primarily in the cytoplasm
